According to patent US12377104B1, “Methods for treating a fatty liver disease” (Madrigal Pharmaceuticals, Inc., priority 2024, dated 2025):

Tested on: adults with biopsy-confirmed NASH
Experiment: MAESTRO-NASH: adverse events, serious adverse events, malignancies
[1] = 100 mg (n = 323), safety population

Excerpt: Safety end points included adverse events, biochemical assessments, and clinical assessments. Selected serious adverse events (including deaths, cardiovascular events, and potential drug-induced liver injury) were adjudicated by independent, external event-adjudication committees whose members were unaware of the trial-group assignments.

SMILES: CC(C)c1cc(Oc2c(Cl)cc(-n3nc(C#N)c(=O)[nH]c3=O)cc2Cl)n[nH]c1=O [Resmetirom, 2-(3,5-dichloro-4-((5-isopropyl-6-oxo-1,6-dihydropyridazin-3-yl)oxy)phenyl)-3,5-dioxo-2,3,4,5-tetrahydro-1,2,4-triazine-6-carbonitrile]
- Adverse event leading to trial discontinuation during entire treatment period, number of patients (100 mg): 25
- Adverse event leading to trial discontinuation during entire treatment period, percent of patients (100 mg): (7.7) percent
- Arthralgia, number of patients (100 mg): 35
- Arthralgia, percent of patients (100 mg): (10.8) percent
- Back pain, number of patients (100 mg): 27
- Back pain, percent of patients (100 mg): (8.4) percent
- Cancer reported, patients (100 mg): 3.4%
- Covid-19, number of patients (100 mg): 54
- Covid-19, percent of patients (100 mg): (16.7) percent
- Diarrhea, number of patients (100 mg): 108
- Diarrhea, percent of patients (100 mg): (33.4) percent
- Fatal adverse event, number of patients (100 mg): 2
- Fatal adverse event, percent of patients (100 mg): (0.6) percent
- Fatigue, number of patients (100 mg): 26
- Fatigue, percent of patients (100 mg): (8.0) percent
- Grade 1: mild, number of patients (100 mg): 66
- Grade 1: mild, percent of patients (100 mg): (20.4) percent
- Grade 2: moderate, number of patients (100 mg): 183
- Grade 2: moderate, percent of patients (100 mg): (56.7) percent
- Grade 3 or higher: severe, number of patients (100 mg): 47
- Grade 3 or higher: severe, percent of patients (100 mg): (14.6) percent
- Major adverse cardiovascular event, number of patients (100 mg): 1
- Major adverse cardiovascular event, percent of patients (100 mg): (0.3) percent
- Nausea, number of patients (100 mg): 61
- Nausea, percent of patients (100 mg): (18.9) percent
- Other cardiovascular event, number of patients (100 mg): 1
- Other cardiovascular event, percent of patients (100 mg): (0.3) percent
- Pruritus, number of patients (100 mg): 37
- Pruritus, percent of patients (100 mg): (11.5) percent
- Urinary tract infection, number of patients (100 mg): 27
- Urinary tract infection, percent of patients (100 mg): (8.4) percent
- ≥1 Adverse event attributed to resmetirom, number of patients (100 mg): 134
- ≥1 Adverse event attributed to resmetirom, percent of patients (100 mg): (41.5) percent
- ≥1 Adverse event, number of patients (100 mg): 296
- ≥1 Adverse event, percent of patients (100 mg): (91.6) percent
- ≥1 Serious adverse event attributed to resmetirom, number of patients (100 mg): 0
- ≥1 Serious adverse event, number of patients (100 mg): 41
- Malignancy: Basal cell carcinoma (100 mg (N = 323)): 3 (0.9) n (%)
- Malignancy: Breast carcinoma (100 mg (N = 323)): 2 (0.6) n (%)
- Malignancy: Malignant melanoma (100 mg (N = 323)): 1 (0.3) n (%)
- Malignancy: Skin cancer (squamous cell) (100 mg (N = 323)): 1 (0.3) n (%)
- Patients with any malignancy (100 mg (N = 323)): 11 (3.4) n (%)
- Patients with at least one TE-SAEs (100 mg (N = 323)): 41 (12.7) n (%)
- SAE: Acute Gallstone-related disorders (100 mg (N = 323)): 3 (0.9) n (%)
- SAE: COVID-19 (100 mg (N = 323)): 1 (0.3) n (%)
- SAE: COVID-19 pneumonia (100 mg (N = 323)): 0 n (%)
- SAE: Cardiac disorders (100 mg (N = 323)): 3 (0.9) n (%)
- SAE: Gastrointestinal disorders (100 mg (N = 323)): 7 (2.2) n (%)
- SAE: General disorders and administration site conditions (100 mg (N = 323)): 5 (1.5) n (%)
- SAE: Infections and infestations (100 mg (N = 323)): 5 (1.5) n (%)
- SAE: Injury, poisoning and procedural complications (100 mg (N = 323)): 8 (2.5) n (%)
- SAE: Musculoskeletal and connective tissue disorders (100 mg (N = 323)): 1 (0.3) n (%)
- SAE: Nervous system disorders (100 mg (N = 323)): 2 (0.6) n (%)
- SAE: Post procedural haemorrhage (100 mg (N = 323)): 1 (0.3) n (%)
- SAE: Respiratory, thoracic and mediastinal disorders (100 mg (N = 323)): 4 (1.2) n (%)
- Adverse event: Abdominal distension [1]: 13 (4.0) no. (%)
- Adverse event: Abdominal pain [1]: 29 (9.0) no. (%)
- Adverse event: Abdominal pain upper [1]: 27 (8.4) no. (%)
- Adverse event: Constipation [1]: 28 (8.7) no. (%)
- Adverse event: Cough [1]: 18 (5.6) no. (%)
- Adverse event: Decreased appetite [1]: 16 (5.0) no. (%)
- Adverse event: Dizziness [1]: 19 (5.9) no. (%)
- Adverse event: Gastrooesophageal reflux disease [1]: 7 (2.2) no. (%)
- Adverse event: Headache [1]: 25 (7.7) no. (%)
- Adverse event: Hypertension [1]: 13 (4.0) no. (%)
- Adverse event: Muscle spasms [1]: 22 (6.8) no. (%)
- Adverse event: Nasopharyngitis [1]: 20 (6.2) no. (%)
- Adverse event: Pain in extremity [1]: 12 (3.7) no. (%)
- Adverse event: Procedural pain [1]: 9 (2.8) no. (%)
- Adverse event: Rash [1]: 21 (6.5) no. (%)
- Adverse event: Sinusitis [1]: 13 (4.0) no. (%)
- Adverse event: Type 2 diabetes [1]: 26 (8.0) no. (%)
- Adverse event: Upper respiratory tract infection [1]: 8 (2.5) no. (%)
- Adverse event: Vomiting [1]: 35 (10.8) no. (%)
- drug-induced liver injury (in vivo): no incidence of drug-induced liver injury
- severe diarrhea (in vivo): no episodes of severe diarrhea
- median duration of diarrhea (independent of dose): 15 to 20 days
